Laboratory results as given in US6992072B2, “Combating side-effects” (Pharma Nord ApS, priority 2001, dated 2006).

Tests used:
Format in all cases: cell-based, human
HepG2 cell line [1] = assay: Number of HepG2 cells on the day of trypsinization (survival) in the presence of ddC; settings: ddC 177 nM; for Number of cells on the day of the trypsinization: HepG2, uridine 200 μM or vitamin cocktail where named
Method: (§1) Cell culture. The HepG2 cell line, a human hepatoma cell line, is taken from the American Type Culture Collection (ATCC No. HB-8065). It is cultured at 37° C. in a 5% CO2 atmosphere. The culture medium is Dulbecco's Modified Eagle Medium (DMEM-containing 4.5 g/l glucose, 110 mg/l pyruvate, 4 mg/l nicotinamide, 4 mg/l pyridoxal hydrochloride, 4 mg/l thiamine and 0.4 riboflavin), supplemented with 10% fetal bovine serum (50 ml FCS, Mycoplex PAA Laboratories, Linz). On day 1, 2.7×10^6 cells are placed in 75 ml culture flasks (Falcon, Becton Dickinson, USA). On days 5, 10, 15, 20 and 25, the cells are trypsinized and counted; 2.7×10^6 cells are again spread out. The medium is changed on each day of trypsinization and on the third day after replating. Materials: Riboflavin (vitamin B2), thiamine (vitamin B1), ascorbic acid (vitamin C), uridine and ddC are purchased from Sigma (USA). The concentrations of uridine are given in the following tables; ddC is used in a concentration of 177 nM, which corresponds to the steady-state plasma levels of patients under HAART. A vitamin cocktail consisting of 7.125 mg/l riboflavin, 7.125 mg/l thiamine and 142.5 mg/l vitamin C is used. These pharmacological concentrations exceed the daily requirement by a factor of about one hundred, and meet the safe upper limits according to the recommendations of the European Union for these micro-nutrients.

[2] = system: mitochondrial DNA (mtDNA); assay: Quantification of mitochondrial DNA by Southern Blot (M/N ratio) in HepG2 cells; settings: ddC 177 nM; for Content of mitochondrial DNA, M/N-ratio in % of the control: control = HepG2-cells without ddC and without uridine
Method: Cell culture. The HepG2 cell line, a human hepatoma cell line, is taken from the American Type Culture Collection (ATCC No. HB-8065). It is cultured at 37° C. in a 5% CO2 atmosphere. The culture medium is Dulbecco's Modified Eagle Medium (DMEM-containing 4.5 g/l glucose, 110 mg/l pyruvate, 4 mg/l nicotinamide, 4 mg/l pyridoxal hydrochloride, 4 mg/l thiamine and 0.4 riboflavin), supplemented with 10% fetal bovine serum (50 ml FCS, Mycoplex PAA Laboratories, Linz). On day 1, 2.7×10^6 cells are placed in 75 ml culture flasks (Falcon, Becton Dickinson, USA). On days 5, 10, 15, 20 and 25, the cells are trypsinized and counted; 2.7×10^6 cells are again spread out. The medium is changed on each day of trypsinization and on the third day after replating. Materials: Riboflavin (vitamin B2), thiamine (vitamin B1), ascorbic acid (vitamin C), uridine and ddC are purchased from Sigma (USA). The concentrations of uridine are given in the following tables; ddC is used in a concentration of 177 nM, which corresponds to the steady-state plasma levels of patients under HAART. A vitamin cocktail consisting of 7.125 mg/l riboflavin, 7.125 mg/l thiamine and 142.5 mg/l vitamin C is used. These pharmacological concentrations exceed the daily requirement by a factor of about one hundred, and meet the safe upper limits according to the recommendations of the European Union for these micro-nutrients. Quantification of mitochondrial DNA (mtDNA) by means of Southern Blot: The content of mtDNA is determined by a well-known Southern-Blot technique (C. T. Moraes et al., “Quantitative Defects of Mitochondrial DNA”, in: S. DiMauro and D. C. Wallace, “Mitochondrial DNA in Human Pathology”, Raven Press, New York 1993, Chapter 8, pages 97–108). Genomic DNA is extracted from the fatty tissue and cut with the restriction endonuclease Pvull. Five μg of the cut material are separated electrophoretically on a 0.8% agarose gel and transferred to a nylon membrane. The mtDNA is tested with a 12.9 kBp mtDNA fragment (which comprises the nucleotide positions 3470 and 16379 of human mtDNA (S. Anderson et al., Nature 9, 457–65 (1981), and which is marked by means stochastically binding primers with digoxigenin). In order to have an internal standard, digoxigen labeled nuclear DNA (nDNA), which hybridizes to the copy-number 18S-ribosomal DNA gene, serves as a second probe. The signals for mtDNA and nDNA are visualized, according to the recommendations of the manufacturer (Boehringer Mannheim, Germany), with a monoclonal antibody against digoxigenin, which is conjugated with alkaline phosphatase. The signal intensities are quantified by computer by means of standard software. The mtDNA content is expressed as the mtDNA/nDNA (M/N) ratio.

HepG2 cell line [3] = assay: L-lactate in the culture medium of HepG2 cells, enzymatic test; settings: ddC 177 nM; for Lactate values in the medium in percent of the control: control without ddC and without uridine, Day 0 = 100%
Method: as §1, with “micro-nutrients. Lactic acid: 1.5 ml of the remainder of the culture is removed in each case immediately before the trypsinization and the L-lactate in it is determined enzymatically with the lactate test-kit from Roche Diagnostics (order No.1822837) in an automatic analysis device (Roche/Hitachi 917) according to the recommendations of the manufacturer.” for “micro-nutrients.”

HepG2 cell line [4] = assay: Intracellular lipids of HepG2 cells, Oil-Red-O staining
Method: as §1, with “The concentrations of uridine are given in the following tables; ddC is used in a concentration of 177 nM, which corresponds to the steady-state plasma levels of patients under HAART.” left out, “micro-nutrients. Determining the intracellular lipids: Intracellular lipid droplets' are stained by means of Oil-Red-O (Sigma, USA). […]” for “micro-nutrients.”

Q: Nc1ccn([C@H]2CC[C@@H](CO)O2)c(=O)n1 [ddC, dideoxycytidine] was tested. Which “Number of cells on the day of the trypsinization” value (shortened to “Number of cells”) (HepG2 cell line [1]; Day 5, 2.7×10^6 cells replated every 5 days) did it give?
A: 110.0 100,000s

Q: And the “Number of cells” value (HepG2 cell line [1]; Day 10)?
A: 98.5 100,000s

Q: And the “Number of cells” value (HepG2 cell line [1]; Day 20)?
A: 66.2 100,000s

Q: And the “Number of cells” value (HepG2 cell line [1]; Day 25)?
A: 38.4 100,000s

Q: What about the “Content of mitochondrial DNA, M/N-ratio in % of the control” value (“Content … M/N-ratio in % of the control” for short) ([2]; Day 0) of the same compound?
A: 100.0%

Q: What about the “Content … M/N-ratio in % of the control” value ([2]; Day 5) of the same compound?
A: 25.6%

Q: What about the “Content … M/N-ratio in % of the control” value ([2]; Day 10) of the same compound?
A: 25.1%

Q: And the “Content … M/N-ratio in % of the control” value ([2]; Day 15)?
A: 11.5%

Q: And the “Content … M/N-ratio in % of the control” value ([2]; Day 20)?
A: 8.3%

Q: And the “Content … M/N-ratio in % of the control” value ([2]; Day 25)?
A: 8.4%

Q: And the “Lactate values in the medium in percent of the control” value (HepG2 cell line [3]; Day 6)?
A: 109.2%

Q: What about the “Lactate values in the medium in percent of the control” value (HepG2 cell line [3]; Day 10) of the same compound?
A: 129.5%

Q: What about the “Lactate values in the medium in percent of the control” value (HepG2 cell line [3]; Day 15) of the same compound?
A: 220.1%

Q: And the “Lactate values in the medium in percent of the control” value (HepG2 cell line [3]; Day 20)?
A: 374.9%

Q: What about the “Lactate values in the medium in percent of the control” value (HepG2 cell line [3]; Day 25) of the same compound?
A: 392.5%

Q: What about the “Intracellular lipids / steatotic changes, microscopic image” value (HepG2 cell line [4]; Day 20, Oil-Red-O, 177 nM ddC, 200 μM uridine as printed) of the same compound?
A: clearly fewer cells are found, which however, are relatively large and red-colored

Q: O=c1ccn([C@@H]2O[C@H](CO)[C@@H](O)[C@H]2O)c(=O)[nH]1 [uridine] was tested. Which “Survival of the HepG2-cells in the presence of ddC” value (HepG2 cell line [1]; uridine 200 μM, 25-day incubation) did it give?
A: normalizes the survival of the HepG2-cells in the presence of ddC

Q: What about the “Reduction of the mtDNA” value ([2]; HepG2, uridine 200 μM) of the same compound?
A: diminishes the reduction of the mtDNA

Q: And the “Production of lactic acid” value (HepG2 cell line [3]; HepG2, uridine 200 μM)?
A: diminished by the uridine

Q: And the “Compensation for the side effects of ddC (overall, see also Tables 1 to 3)” value (HepG2 cell line [4]; summary of lipid staining, cell number, mtDNA and lactate)?
A: can compensate for the side effects of ddC
